Source: article PMC4012458, “Action of Clathrodin and Analogues on Voltage-Gated Sodium Channels” (Marine Drugs, 2014)

Tests used:
NaV1.5 = molecular target: T1, NaV1.5 (Homo sapiens, UniProt Q14524); assay: two-electrode voltage clamp in Xenopus oocytes, […] inhibition at […]; assay type: cell-based
T1 construct: gene SCN5A

NaV1.4 = molecular target: T2, NaV1.4 (Rattus norvegicus, UniProt P15390); assay: two-electrode voltage clamp in Xenopus oocytes, concentration-response; also QPatch patch clamp; assay type: cell-based
T2 construct: gene Scn4a
T2 sequence (P15390 whole entry): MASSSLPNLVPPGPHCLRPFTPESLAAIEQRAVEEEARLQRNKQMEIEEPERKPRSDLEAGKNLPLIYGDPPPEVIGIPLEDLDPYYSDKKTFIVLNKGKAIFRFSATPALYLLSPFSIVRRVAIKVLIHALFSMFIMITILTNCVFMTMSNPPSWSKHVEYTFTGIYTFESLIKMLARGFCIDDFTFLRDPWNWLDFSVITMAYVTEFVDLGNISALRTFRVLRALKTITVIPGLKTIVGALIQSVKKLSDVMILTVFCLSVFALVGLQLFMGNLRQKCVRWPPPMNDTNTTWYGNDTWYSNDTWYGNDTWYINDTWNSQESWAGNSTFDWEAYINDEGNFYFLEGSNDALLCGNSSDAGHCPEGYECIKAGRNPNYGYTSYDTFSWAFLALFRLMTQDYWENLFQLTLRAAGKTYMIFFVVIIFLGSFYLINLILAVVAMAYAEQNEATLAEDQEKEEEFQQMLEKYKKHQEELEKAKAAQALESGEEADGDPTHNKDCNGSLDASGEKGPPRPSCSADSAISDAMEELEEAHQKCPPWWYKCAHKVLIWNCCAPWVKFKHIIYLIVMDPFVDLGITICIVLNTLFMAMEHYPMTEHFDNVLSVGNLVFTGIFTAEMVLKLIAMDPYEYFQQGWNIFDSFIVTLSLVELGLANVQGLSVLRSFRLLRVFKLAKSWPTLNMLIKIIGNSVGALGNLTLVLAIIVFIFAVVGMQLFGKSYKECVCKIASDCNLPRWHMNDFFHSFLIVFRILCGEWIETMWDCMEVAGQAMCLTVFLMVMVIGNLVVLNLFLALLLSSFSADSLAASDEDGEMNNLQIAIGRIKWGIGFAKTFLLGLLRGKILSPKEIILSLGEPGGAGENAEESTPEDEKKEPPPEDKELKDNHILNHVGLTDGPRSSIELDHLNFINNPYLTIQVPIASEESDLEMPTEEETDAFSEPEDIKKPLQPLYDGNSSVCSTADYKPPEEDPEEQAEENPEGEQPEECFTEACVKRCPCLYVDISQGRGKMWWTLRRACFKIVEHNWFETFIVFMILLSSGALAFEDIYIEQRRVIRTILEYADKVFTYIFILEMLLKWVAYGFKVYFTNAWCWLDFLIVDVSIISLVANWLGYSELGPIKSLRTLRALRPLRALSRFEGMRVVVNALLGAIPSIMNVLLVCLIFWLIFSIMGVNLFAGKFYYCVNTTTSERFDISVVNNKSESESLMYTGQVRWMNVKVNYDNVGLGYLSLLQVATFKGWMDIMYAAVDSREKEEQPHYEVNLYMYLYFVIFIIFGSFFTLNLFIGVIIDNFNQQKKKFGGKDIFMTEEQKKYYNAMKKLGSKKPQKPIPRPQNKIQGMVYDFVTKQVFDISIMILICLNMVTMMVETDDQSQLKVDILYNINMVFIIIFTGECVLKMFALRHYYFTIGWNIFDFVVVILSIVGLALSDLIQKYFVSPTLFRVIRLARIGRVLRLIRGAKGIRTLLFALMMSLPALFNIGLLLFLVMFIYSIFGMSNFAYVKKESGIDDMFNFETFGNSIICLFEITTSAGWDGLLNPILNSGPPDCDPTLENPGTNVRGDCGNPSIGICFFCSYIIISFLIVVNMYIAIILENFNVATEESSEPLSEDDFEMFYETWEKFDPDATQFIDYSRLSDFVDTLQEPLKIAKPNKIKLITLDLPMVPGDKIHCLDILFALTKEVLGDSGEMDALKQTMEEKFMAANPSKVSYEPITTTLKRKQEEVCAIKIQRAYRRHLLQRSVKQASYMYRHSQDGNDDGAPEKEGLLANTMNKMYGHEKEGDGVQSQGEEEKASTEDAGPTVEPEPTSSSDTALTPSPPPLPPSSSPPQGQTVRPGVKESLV

T1 sequence (Q14524 whole entry): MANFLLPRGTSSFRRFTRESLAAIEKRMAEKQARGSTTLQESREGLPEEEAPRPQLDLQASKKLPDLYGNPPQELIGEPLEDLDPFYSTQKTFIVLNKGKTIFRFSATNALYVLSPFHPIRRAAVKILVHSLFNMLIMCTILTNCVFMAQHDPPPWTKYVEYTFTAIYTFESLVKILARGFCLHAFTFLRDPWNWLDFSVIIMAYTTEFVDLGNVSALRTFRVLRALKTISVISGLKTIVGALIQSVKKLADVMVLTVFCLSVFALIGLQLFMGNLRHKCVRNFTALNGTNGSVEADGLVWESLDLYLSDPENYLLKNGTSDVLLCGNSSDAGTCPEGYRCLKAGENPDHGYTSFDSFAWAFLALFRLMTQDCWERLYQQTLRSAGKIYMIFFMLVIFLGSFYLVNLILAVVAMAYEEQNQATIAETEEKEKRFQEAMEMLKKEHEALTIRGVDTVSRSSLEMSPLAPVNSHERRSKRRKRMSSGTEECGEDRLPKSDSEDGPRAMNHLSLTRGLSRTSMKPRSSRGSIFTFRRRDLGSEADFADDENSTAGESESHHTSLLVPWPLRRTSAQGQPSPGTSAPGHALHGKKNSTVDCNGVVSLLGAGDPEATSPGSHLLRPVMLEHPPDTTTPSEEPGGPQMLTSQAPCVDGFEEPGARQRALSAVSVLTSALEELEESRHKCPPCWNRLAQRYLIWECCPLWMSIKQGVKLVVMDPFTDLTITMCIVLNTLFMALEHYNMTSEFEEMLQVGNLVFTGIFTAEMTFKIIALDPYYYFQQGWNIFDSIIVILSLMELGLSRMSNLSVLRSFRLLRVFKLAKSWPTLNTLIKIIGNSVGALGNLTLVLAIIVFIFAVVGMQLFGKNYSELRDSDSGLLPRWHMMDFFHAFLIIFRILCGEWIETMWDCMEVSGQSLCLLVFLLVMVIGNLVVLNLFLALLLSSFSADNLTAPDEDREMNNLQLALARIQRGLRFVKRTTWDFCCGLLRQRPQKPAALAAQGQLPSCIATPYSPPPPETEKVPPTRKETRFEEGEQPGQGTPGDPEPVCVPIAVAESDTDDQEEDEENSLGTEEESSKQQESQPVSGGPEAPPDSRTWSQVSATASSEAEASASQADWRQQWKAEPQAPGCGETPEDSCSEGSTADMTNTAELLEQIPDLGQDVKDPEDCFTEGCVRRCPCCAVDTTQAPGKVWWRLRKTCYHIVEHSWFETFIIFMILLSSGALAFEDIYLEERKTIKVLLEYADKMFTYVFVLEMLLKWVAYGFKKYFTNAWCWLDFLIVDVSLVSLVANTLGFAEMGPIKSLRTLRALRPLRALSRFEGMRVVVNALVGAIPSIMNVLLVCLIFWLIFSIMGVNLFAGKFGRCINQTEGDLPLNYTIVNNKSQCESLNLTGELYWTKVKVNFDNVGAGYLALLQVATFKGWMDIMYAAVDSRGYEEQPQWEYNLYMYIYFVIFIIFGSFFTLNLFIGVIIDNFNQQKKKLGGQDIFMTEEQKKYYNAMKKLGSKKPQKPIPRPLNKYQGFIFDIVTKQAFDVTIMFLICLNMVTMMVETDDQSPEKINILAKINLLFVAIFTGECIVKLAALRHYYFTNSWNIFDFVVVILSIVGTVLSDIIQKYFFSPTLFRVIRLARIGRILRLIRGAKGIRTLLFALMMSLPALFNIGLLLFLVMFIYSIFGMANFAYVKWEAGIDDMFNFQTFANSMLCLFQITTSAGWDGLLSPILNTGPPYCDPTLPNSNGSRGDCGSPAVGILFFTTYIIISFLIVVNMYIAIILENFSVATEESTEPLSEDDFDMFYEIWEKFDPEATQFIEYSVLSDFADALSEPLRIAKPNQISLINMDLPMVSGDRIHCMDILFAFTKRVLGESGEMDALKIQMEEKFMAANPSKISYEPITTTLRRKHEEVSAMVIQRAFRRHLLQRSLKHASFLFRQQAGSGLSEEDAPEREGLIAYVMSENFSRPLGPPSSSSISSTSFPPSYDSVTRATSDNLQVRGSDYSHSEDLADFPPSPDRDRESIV

Nc1nc(-c2cccc(NC(=O)c3c[nH]c4ccccc34)c2)c[nH]1 [compound 9, Compound 9]
inhibition at 1 µM (NaV1.5): 19.6 ± 1.3%
IC50 (NaV1.4): 3.5 ± 0.9 µM
